Read-outs that look alike come from different tables or passages of the source.
Tests used:
[1] = tested on: HCV replicon in Huh7 cells; assay: HCV replicon cell-based assay; parameters: species or system HCV strain 1B; details: Hepatitis C virus, Huh-7; HCV replicon, Huh7 cells; read-out: EC50 range
[2] = target: HCV NS3/4A protease complex, BMS strain (UniProt P27958, C1454S/C1711G, species not given/STRAIN_BMS); assay: Recombinant HCV NS3/4A protease complex FRET peptide assay (BMS strain); format: biochemical, HCV genotype 1a
Procedure, shortened: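 Recombinant BMS-strain NS3/4A (His-tagged NS4A with three-lysine tail, E. coli) at 2-3 nM preincubated 1 min with compound, then 2 μM ester-linked NS4A/NS4B-based FRET peptide added. Fluorescence followed in real time ~15 min at 25° C. Percent inhibition from slope of linear fluorescence change versus no-compound control.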

[3] = NS3/4A BMS strain; read-out: IC50 range
[4] = read-out: IC50 range; NS3/4A BMS strain

## C=C[C@@H]1C[C@]1(NC(=O)[C@@H]1C[C@@H](Oc2ccnc(-c3ccc(OC)cc3)c2)CN1C(=O)[C@@H](NC(=O)OC1CCCC1)C(C)(C)C)C(=O)NS(=O)(=O)C1CC1 [Compound 428]
[1]
  EC50: 100 to 1000 nM
[2]; [3]
  IC50: < 100 nM

## C=C[C@@H]1CC1(NC(=O)[C@@H]1CC(Oc2nccc3cc(OC)ccc23)CN1C(=O)[C@@H](NC(=O)O[C@@H]1C[C@H](C)CC[C@H]1C(C)C)C(C)(C)C)C(=O)NS(=O)(=O)C1CC1 (stereo partly shown) [Compound 66]
[1]
  EC50: 100 to 1000 nM
[2]; [3]
  IC50: < 100 nM

## C=CC1C[C@]1(NC(=O)[C@@H]1C[C@@H](Oc2nccc3c(C(=O)c4cccs4)c(OC)ccc23)CN1C(=O)[C@@H](NC(=O)OC(C)(C)C)C(C)(C)C)C(=O)NS(=O)(=O)C1CC1 (stereo partly shown) [Compound 209]
[1]
  EC50: 100 to 1000 nM
[2]; [3]
  IC50: < 100 nM

## C=CC1C[C@]1(NC(=O)[C@@H]1C[C@@H](Oc2noc3cc(OC)ccc23)CN1C(=O)[C@@H](NC(=O)OC(C)(C)C)C(C)(C)C)C(=O)NS(=O)(=O)C1CC1 (stereo partly shown) [Compound 323]
[1]
  EC50: 100 to 1000 nM
[2]; [3]
  IC50: < 100 nM

## C=C[C@@H]1C[C@]1(NC(=O)[C@@H]1C[C@@H](Oc2nccc3cc(OC)ccc23)CN1C(=O)[C@@H](NC(=O)OC(C)(C)C)C1CCCCC1)C(=O)NS(=O)(=O)C1CC1 [Compound 143]
[1]
  EC50: < 100 nM
[2]; [3]
  IC50: < 100 nM

## C=C[C@@H]1C[C@]1(NC(=O)[C@@H]1CC(Oc2nccc3cc(OC)ccc23)CN1C(=O)[C@@H](NC(=O)OC(C)(C)C(Cl)(Cl)Cl)C(C)(C)C)C(=O)NS(=O)(=O)C1CC1 (stereo partly shown) [Compound 68]
[1]
  EC50: < 100 nM
[2]; [3]
  IC50: < 100 nM

## C=C[C@@H]1C[C@]1(NC(=O)[C@@H]1C[C@@H](Oc2nccc3ccccc23)CN1C(=O)[C@@H](NC(=O)Oc1ccccc1)C(C)(C)C)C(=O)NS(=O)(=O)C1CC1 [Compound 121]
[1]
  EC50: 100 to 1000 nM
[2]; [3]
  IC50: < 100 nM

## C=C[C@@H]1C[C@]1(NC(=O)[C@@H]1CC(Oc2nccc3cc(OC)ccc23)CN1C(=O)[C@@H](NC(=O)OC(C)(C)CC)C(C)(C)C)C(=O)NS(=O)(=O)C1CC1 (stereo partly shown) [Compound 67]
[1]
  EC50: < 100 nM
[2]; [3]
  IC50: < 100 nM

## C=C[C@@H]1C[C@]1(NC(=O)[C@@H]1C[C@@H](Oc2nccc3cc(OC)ccc23)CN1C(=O)[C@@H](NC(=O)N[C@H](C(=O)OC(C)(C)C)C(C)C)C(C)(C)C)C(=O)NS(=O)(=O)C1CC1 [Compound 152]
[1]
  EC50: < 100 nM
[2]; [3]
  IC50: < 100 nM

## C=C[C@@H]1C[C@]1(NC(=O)[C@@H]1CC(Oc2nccc3cc(OC)ccc23)CN1C(=O)[C@H](CC(C)C)N(C)C(=O)OC(C)(C)C)C(=O)NS(=O)(=O)C1CC1 (stereo partly shown) [Compound 86]
[1]
  EC50: 10000 to 100000 nM
[2]; [3]
  IC50: 1000 to 10000 nM

## CC[C@@H]1C[C@]1(NC(=O)[C@@H]1C[C@@H](Oc2nccc3c4c(ccc23)OC(F)(F)O4)CN1C(=O)[C@@H](NC(=O)OC(C)(C)C)C(C)(C)C)C(=O)NS(=O)(=O)C1CC1 [Compound 289]
[1]
  EC50: 100 to 1000 nM
[2]; [3]
  IC50: < 100 nM

## C=CC1C[C@]1(NC(=O)[C@@H]1C[C@@H](Oc2nc3c(c4ccccc24)OCOC3)CN1C(=O)[C@@H](NC(=O)OC(C)(C)C)C(C)(C)C)C(=O)NS(=O)(=O)C1CC1 (stereo partly drawn) [Compound 227, BOCNH-P3(L-t-BuGly)-P2[(4R)-(1,3-oxazino[5,6-c]isoquinoline-6-oxo)-S-proline]-P1(1R,2S VinylAcca)-CONHSO2Cyclopropane]
[1]
  EC50: < 100 nM
[2]; [3]
  IC50: < 100 nM

## C=C[C@@H]1C[C@]1(NC(=O)[C@@H]1C[C@@H](Oc2nccc3cc(OC)ccc23)CN1C(=O)[C@@H](NC(=O)OC(C)(C)C)[C@H](C)OCC)C(=O)NS(=O)(=O)C1CC1 [Compound 96]
[1]
  EC50: < 100 nM
[2]; [4]
  IC50: < 100 nM

## C=C[C@@H]1C[C@]1(NC(=O)[C@@H]1CC(Oc2nccc3cc(OC)ccc23)CN1C(=O)[C@H](C(C)C)N(C)C(=O)OC(C)(C)C)C(=O)NS(=O)(=O)C1CC1 (stereo partly shown) [Compound 85]
[1]
  EC50: 1000 to 10000 nM
[2]; [3]
  IC50: 100 to 1000 nM

## C=C[C@@H]1C[C@]1(NC(=O)[C@@H]1C[C@@H](Oc2nccc3c(C)cccc23)CN1C(=O)[C@@H](NC(=O)OC(C)(C)C)C(C)(C)C)C(=O)NS(=O)(=O)C1CC1 [Compound 252]
[1]
  EC50: < 100 nM
[2]; [3]
  IC50: < 100 nM

## C=C[C@@H]1C[C@]1(NC(=O)[C@@H]1C[C@@H](Oc2nccc3c2ccc2occc23)CN1C(=O)[C@@H](NC(=O)OC(C)(C)C)C(C)(C)C)C(=O)NS(=O)(=O)C1CC1 [Compound 268]
[1]
  EC50: < 100 nM
[2]; [3]
  IC50: < 100 nM

## C=C[C@@H]1C[C@]1(NC(=O)[C@@H]1C[C@@H](Oc2nccc3cc(OC)ccc23)CN1C(=O)[C@@H](NC(=O)OC(C)(C)C)[C@H](C)CC)C(=O)NS(=O)(=O)C1CC1 [Compound 13]
[1]
  EC50: < 100 nM
[2]; [3]
  IC50: < 100 nM

## C=CC1C[C@]1(NC(=O)[C@@H]1C[C@@H](Nc2nccc3ccccc23)CN1C(=O)[C@@H](NC(=O)OC(C)(C)C)C(C)(C)C)C(=O)NS(=O)(=O)C1CC1 (stereo partly shown) [Compound 357]
[1]
  EC50: 100 to 1000 nM
[2]; [4]
  IC50: < 100 nM

## C=C[C@@H]1C[C@]1(NC(=O)[C@@H]1C[C@@H](Oc2cc(-c3ccccc3)nc(-c3cccs3)c2)CN1C(=O)[C@@H](NC(=O)OC(C)(C)C)C(C)(C)C)C(=O)NS(=O)(=O)C1CC1 [Compound 413]
[1]
  EC50: < 100 nM
[2]; [3]
  IC50: < 100 nM

## C=C[C@@H]1C[C@]1(NC(=O)[C@@H]1C[C@@H](Oc2nc(N3CCOCC3)cc3cc(OC)ccc23)CN1C(=O)[C@@H](NC(=O)OC(C)(C)C)C(C)(C)C)C(=O)NS(=O)(=O)C1CC1 [Compound 385]
[1]
  EC50: < 100 nM
[2]; [3]
  IC50: < 100 nM

## C=C[C@@H]1C[C@]1(NC(=O)[C@@H]1C[C@@H](Oc2nccc3ccccc23)CN1C(=O)[C@@H](NC(=O)OCCF)C(C)(C)C)C(=O)NS(=O)(=O)C1CC1 [Compound 126]
[1]
  EC50: 100 to 1000 nM
[2]; [3]
  IC50: < 100 nM

## C=C[C@@H]1C[C@]1(NC(=O)[C@@H]1C[C@@H](Oc2nccc3c4c(ccc23)OC(F)(F)O4)CN1C(=O)[C@@H](NC(=O)OC(C)(C)C)C(C)(C)C)C(=O)NS(=O)(=O)C1CC1 [Compound 287]
[1]
  EC50: 100 to 1000 nM
[2]; [3]
  IC50: < 100 nM

## C=C[C@@H]1C[C@]1(NC(=O)[C@@H]1C[C@@H](Oc2nccc3cc(OC)ccc23)CN1C(=O)[C@@H](NC(=O)N[C@H](C(=O)OCC)C(C)C)C(C)(C)C)C(=O)NS(=O)(=O)C1CC1 [Compound 148]
[1]
  EC50: < 100 nM
[2]; [3]
  IC50: < 100 nM

## C=CC1C[C@]1(NC(=O)[C@@H]1C[C@@H](Oc2nccc3cc(C(=O)N(C)C)ccc23)CN1C(=O)[C@@H](NC(=O)OC(C)(C)C)C(C)(C)C)C(=O)NS(=O)(=O)C1CC1 (stereo partly drawn) [Compound 244, BOCNH-P3(L-t-BuGly)-P2-[(4R) -(6-carboxylic acid dimethylamideisoquinoline-1-oxo)-S-proline]-P1(1R,2S VinylAcca) -CONHSO2Cyclopropane]
[1]
  EC50: 10000 to 100000 nM
[2]; [3]
  IC50: < 100 nM

## C=C[C@@H]1C[C@]1(NC(=O)[C@@H]1C[C@@H](Oc2ncc(OC)c3ccccc23)CN1C(=O)[C@@H](NC(=O)OC(C)(C)C)C(C)(C)C)C(=O)NS(=O)(=O)C1CC1 [Compound 251]
[1]
  EC50: < 100 nM
[2]; [3]
  IC50: < 100 nM

## C=C[C@@H]1C[C@]1(NC(=O)[C@@H]1C[C@@H](Oc2nccc3ccccc23)CN1C(=O)[C@@H](NC(=O)O[C@@H]1C[C@H](C)CC[C@H]1C(C)C)C(C)(C)C)C(=O)NS(=O)(=O)C1CC1 [Compound 128]
[1]
  EC50: 100 to 1000 nM
[2]; [3]
  IC50: < 100 nM

## C=CC1C[C@]1(NC(=O)[C@@H]1C[C@@H](Oc2nccc3c4c(c(SC)cc23)OCO4)CN1C(=O)[C@@H](NC(=O)OC(C)(C)C)C(C)(C)C)C(=O)NS(=O)(=O)C1CC1 (stereo partly drawn) [Compound 213, BOCNH-P3(L-t-BuGly)-P2[(4R)-(4-methylthio-1,3-dioxa-7-aza-cyclopenta[a]naphthalen-6-yloxy)-S-proline]-P1(1R,2S VinylAcca)-CONHSO2Cyclopropane]
[1]
  EC50: < 100 nM
[2]; [3]
  IC50: < 100 nM

## C=C[C@@H]1C[C@]1(NC(=O)[C@@H]1CC(Oc2nc(-c3ccccc3)cc3ccccc23)CN1C(=O)[C@@H](NC(=O)OC(C)(C)C)[C@H](C)OCC)C(=O)NS(=O)(=O)C1CC1 (stereo partly shown) [Compound 109]
[1]
  EC50: < 100 nM
[2]; [3]
  IC50: < 100 nM

## C=C[C@@H]1C[C@]1(NC(=O)[C@@H]1C[C@@H](Oc2nccc3cc(OC)ccc23)CN1C(=O)[C@@H](NC(=O)NC(C)(C)C)[C@H](C)OC)C(=O)NS(=O)(=O)C1CC1 [Compound 101]
[1]
  EC50: < 100 nM
[2]; [4]
  IC50: < 100 nM

## C=C[C@@H]1C[C@]1(NC(=O)[C@@H]1C[C@@H](Oc2nccc3cc(OC)ccc23)CN1C(=O)[C@@H](NC(=O)OC(C)(C)C)c1ccccc1)C(=O)NS(=O)(=O)C1CC1 [Compound 134]
[1]
  EC50: 100 to 1000 nM
[2]; [3]
  IC50: < 100 nM

## C=C[C@@H]1C[C@]1(NC(=O)[C@@H]1C[C@@H](Oc2cc(C)nc(-c3ccccc3)c2)CN1C(=O)[C@@H](NC(=O)OC(C)(C)C)C(C)(C)C)C(=O)NS(=O)(=O)C1CC1 [Compound 437]
[1]
  EC50: 100 to 1000 nM
[2]; [3]
  IC50: < 100 nM

## C=CC1C[C@]1(NC(=O)[C@@H]1C[C@@H](Oc2ccc3nccc(Cl)c3c2)CN1C(=O)[C@@H](NC(=O)OC(C)(C)C)C(C)(C)C)C(=O)NS(=O)(=O)C1CC1 (stereo partly drawn) [Compound 240, BOCNH-P3(L-t-BuGly)-P2[(4R)-(4-chloroquinoline-6-oxo)-S -proline]-P1(1R,2S VinylAcca)-CONHSO2Cyclopropane]
[1]
  EC50: < 100 nM
[2]; [3]
  IC50: < 100 nM

## C=C[C@@H]1C[C@]1(NC(=O)[C@@H]1C[C@@H](Oc2nccc3cc(OC)ccc23)CN1C(=O)[C@@H](NC(=O)OC(C)(C)C)[C@H](C)OC)C(=O)NS(=O)(=O)C1CC1 [Compound 94]
[1]
  EC50: < 100 nM
[2]; [3]
  IC50: < 100 nM

## C=CC1CC1(NC(=O)C1CC(Oc2nccc3c(OC(F)F)cccc23)CN1C(=O)C(NC(=O)OC(C)(C)C)C(C)(C)C)C(=O)NS(=O)(=O)C1CC1 (stereo not shown) [Compound 285]
[1]
  EC50: < 100 nM
[2]; [3]
  IC50: < 100 nM

## CC[C@@H]1C[C@]1(NC(=O)[C@@H]1C[C@@H](Oc2cc3c(Cl)nccc3cc2OC)CN1C(=O)[C@@H](NC(=O)OC(C)(C)C)C(C)(C)C)C(=O)NS(=O)(=O)C1CC1 [Compound 300]
[1]
  EC50: 100 to 1000 nM
[2]; [3]
  IC50: < 100 nM

From US7915291B2, “Hepatitis C virus inhibitors” (Bristol-Myers Squibb Company, priority 2002, dated 2011)
